Laboratory results reported in patent publication US20230183237A1, “COMPETITIVE AND NONCOMPETITIVE INHIBITORS OF THE MUSCARINIC ACETYLCHOLINE RECEPTOR M5” (Vanderbilt University, priority 2020, published 2023).
Read-outs that look alike come from different tables or passages of the source.

Target: T1, hM5 (Homo sapiens, UniProt P08912)
T1 construct: expressed in transfected cells
T1 sequence (P08912 1-532): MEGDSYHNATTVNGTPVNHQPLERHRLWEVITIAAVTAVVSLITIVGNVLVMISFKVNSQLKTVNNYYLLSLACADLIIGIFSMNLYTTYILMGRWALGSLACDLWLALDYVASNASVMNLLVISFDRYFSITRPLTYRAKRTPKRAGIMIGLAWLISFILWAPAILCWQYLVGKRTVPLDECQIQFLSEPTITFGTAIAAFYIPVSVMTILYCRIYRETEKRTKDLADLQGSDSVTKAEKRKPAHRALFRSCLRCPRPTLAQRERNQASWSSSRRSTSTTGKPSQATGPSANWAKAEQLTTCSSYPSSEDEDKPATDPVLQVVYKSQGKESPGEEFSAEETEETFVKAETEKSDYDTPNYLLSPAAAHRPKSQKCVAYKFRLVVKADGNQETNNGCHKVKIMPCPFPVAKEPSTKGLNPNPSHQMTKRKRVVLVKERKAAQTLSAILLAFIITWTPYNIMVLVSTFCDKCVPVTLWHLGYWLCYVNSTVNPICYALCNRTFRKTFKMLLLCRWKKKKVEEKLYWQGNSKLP
Experiment: Calcium mobilization concentration-response (IC50 vs EC80 acetylcholine), CHO hM5
Assay type: cell-based
Conditions: CELL LINE hM5, read-out: IC50
How it was run: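 CHO cells stably expressing hM5, dye-loaded, in HBSS/20 mM HEPES/2.5 mM probenecid, pH 7.4. Compounds were pre-incubated 140 s before an EC80 acetylcholine challenge, with calcium flux read kinetically.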

[1] = calcium mobilization, EC80 acetylcholine addition

Row | IC50 [1] [nM] | IC50 (vs EC80 acetylcholine) [nM] | Structure (SMILES)
1 | 5800 |  | Cc1sc(C(N)=O)nc1C1CCN(S(=O)(=O)c2cnn(C)c2C)CC1 [Compound 213, 4-(1-((1,5-Dimethyl-1H-pyrazol-4-yl)sulfonyl)piperidin-4-yl)-5-methylthiazole-2-carboxamide]
2 |  | 59 | Cc1cc2nccn2nc1N1CCN(S(=O)(=O)c2cnn3c2OCCC3)CC1 [Compound 437, 3-((4-(7-methylimidazo[1,2-b]pyridazin-6-yl)piperazin-1-yl)sulfonyl)-6,7-dihydro-5H-pyrazolo[5,1-b][1,3]oxazine]
3 |  | 94 | Cc1ncc(S(=O)(=O)N2CCC(c3cnc(N(C)C)cc3C)CC2)o1 [Compound 564, N,N,4-trimethyl-5-(1-((2-methyloxazol-5-yl)sulfonyl)piperidin-4-yl)pyridin-2-amine]
4 | > 10000 |  | COc1cc(C2CCN(S(=O)(=O)c3cc4c(cc3F)OCC4)CC2)cn2ncnc12 [Compound 115, 6-(1-((6-fluoro-2,3-dihydrobenzofuran-5-yl)sulfonyl)piperidin-4-yl)-8-methoxy-[1,2,4]triazolo[1,5-a]pyridine]
5 |  | 1630 | Cc1cc2ncnn2cc1C1=C(C#N)CN(S(=O)(=O)c2cnn(C)c2C)CC1 [Compound 468, 1-((1,5-dimethyl-1H-pyrazol-4-yl)sulfonyl)-4-(7-methyl-[1,2,4]triazolo[1,5-a]pyridin-6-yl)-1,2,5,6-tetrahydropyridine-3-carbonitrile]
6 | > 10000 |  | Cc1sc(C(N)=O)nc1C1=CCN(S(=O)(=O)c2cnn(C)c2C)CC1 [Compound 202, 4-(1-((1,5-dimethyl-1H-pyrazol-4-yl)sulfonyl)-1,2,3,6-tetrahydropyridin-4-yl)-5-methylthiazole-2-carboxamide]
7 |  | 86 | Cc1cc2ncnn2cc1C1(F)CCN(S(=O)(=O)c2cnn(C)c2C#N)CC1 [Compound 462, 4-((4-fluoro-4-(7-methyl-[1,2,4]triazolo[1,5-a]pyridin-6-yl)piperidin-1-yl)sulfonyl)-1-methyl-1H-pyrazole-5-carbonitrile]
8 | 53 |  | [2H]C([2H])([2H])n1cc(S(=O)(=O)N2CCC(c3cn4ncnc4cc3C)CC2)c(Cl)n1 [Compound 256, 6-(1-((3-chloro-1-(methyl-d3)-1H-pyrazol-4-yl)sulfonyl)piperidin-4-yl)-7-methyl-[1,2,4]triazolo[1,5-a]pyridine]
9 | > 10000 |  | Cc1cc2nncn2cc1C1CCN(S(=O)(=O)c2cc3c(cc2F)OCC3)CC1 [Compound 51, 6-(1-((6-fluoro-2,3-dihydrobenzofuran-5-yl)sulfonyl)piperidin-4-yl)-7-methyl-[1,2,4]triazolo[4,3-a]pyridine]
10 | > 10000 |  | O=S(=O)(c1ccc2ncccc2c1)N1CCC(c2cc3cc[nH]c3cn2)CC1 [Compound 26, 6-((4-(1H-pyrrolo[2,3-c]pyridin-5-yl)piperidin-1-yl)sulfonyl)quinoline]
11 | 9200 |  | Cc1cc2c(cc1S(=O)(=O)N1CCC(c3cc(C)c4ncnn4c3)CC1)C(C)CO2 (centres unmarked) [Compound 86, 6-(1-((3,6-dimethyl-2,3-dihydrobenzofuran-5-yl)sulfonyl)piperidin-4-yl)-8-methyl-[1,2,4]triazolo[1,5-a]pyridine]
12 | 227 |  | CCc1cc2ncnn2cc1C1CCN(S(=O)(=O)c2cnc(C)n2C)CC1 [Compound 300, 6-(1-((1,2-dimethyl-1H-imidazol-5-yl)sulfonyl)piperidin-4-yl)-7-ethyl-[1,2,4]triazolo[1,5-a]pyridine]
13 |  | 9 | Cc1cc(N(C)C)ncc1C1CCN(S(=O)(=O)c2cnn(C)c2C)CC1 [Compound 550, 5-(1-((1,5-dimethyl-1H-pyrazol-4-yl)sulfonyl)piperidin-4-yl)-N,N,4-trimethylpyridin-2-amine]
14 | 2060 |  | Cc1cc2c(cc1C1CCN(S(=O)(=O)c3ccc4c(c3)CCO4)CC1)OCO2 [Compound 375, 1-((2,3-dihydrobenzofuran-5-yl)sulfonyl)-4-(6-methylbenzo[d][1,3]dioxol-5-yl)piperidine]
